In the CheMixHub viscosity set:
Where “and” joins values, the source holds several entries; their conditions need not be identical. Equal entries are not always repeated.

Assay: xn = mol fraction of the nth substance listed

CC(Cl)(Cl)Cl + CCCO
298.15 K, 101 kPa
Conditions	viscosity [mPa·s]
x1 = 0.0572	1.789
x1 = 0.1154	1.667
x1 = 0.193	1.506
x1 = 0.3007	1.318
x1 = 0.3956	1.165
x1 = 0.49	1.045
x1 = 0.6367	0.909
x1 = 0.7983	0.824
x1 = 0.8861	0.799

CCCC[N+](CCCC)(CCCC)CCCC.[OH-] + O
viscosity [mPa·s], 101 kPa
Conditions	x1 = 0.00178	x1 = 0.00364	x1 = 0.007655	x1 = 0.0121	x1 = 0.01706	x1 = 0.02262	x1 = 0.0289
298.15 K	1.232	1.332	1.432	2.03	2.632	3.779	4.942
303.15 K	1.088	1.173	1.258	1.697	2.233	3.129	4.045
313.15 K	0.8712	0.9342	0.9951	1.319	1.659	2.198	2.857
323.15 K	0.716	0.7632	0.8107	1.04	1.289	1.692	2.115

C1CN2CN3CCN(CN1C3)C2 + O
viscosity [mPa·s], 101 kPa
Conditions	x1 = 0.003598	x1 = 0.007216	x1 = 0.01073	x1 = 0.01425	x1 = 0.0183
293.15 K	1.032	1.083	1.146	1.232	1.347
298.15 K	0.928	0.985	1.047	1.129	1.24
300.15 K	0.843	0.899	0.961	1.04	1.136
305.15 K	0.764	0.822	0.88	0.96	1.054

NS(=O)(=O)c1cc(C(=O)O)c(NCc2ccco2)cc1Cl + O
viscosity, 101 kPa
Conditions	293.15 K	298.15 K	303.15 K	308.15 K	313.15 K
x1 = 2e-05	1.009 mPa·s	0.8969 mPa·s and 0.8925 mPa·s	0.8057 mPa·s and 0.8013 mPa·s	0.7295 mPa·s and 0.7245 mPa·s	0.6618 mPa·s and 0.6566 mPa·s
x1 = 9e-05	1.017 mPa·s and 1.02 mPa·s	0.9018 mPa·s and 0.9048 mPa·s	0.81 mPa·s and 0.8104 mPa·s	0.7336 mPa·s and 0.7368 mPa·s	0.6659 mPa·s
x1 = 0.0002	1.022 mPa·s and 1.018 mPa·s	0.9069 mPa·s and 0.9052 mPa·s	0.8174 mPa·s and 0.8126 mPa·s	0.7401 mPa·s and 0.7333 mPa·s	0.6718 mPa·s and 0.6662 mPa·s

CCCCCBr + Cc1ccc(C)cc1
308.15 K, 101 kPa
Conditions	viscosity [mPa·s]
x2 = 0.1026	0.6316
x2 = 0.1991	0.6138
x2 = 0.304	0.5958
x2 = 0.4033	0.5803
x2 = 0.503	0.5655
x2 = 0.6052	0.5526
x2 = 0.7021	0.5436
x2 = 0.8	0.5318
x2 = 0.9034	0.5238

CC(Cl)(Cl)Cl + CCO
viscosity [mPa·s], 101.32 kPa
Conditions	x2 = 0.1602	x2 = 0.3002	x2 = 0.4237	x2 = 0.5336	x2 = 0.6318	x2 = 0.7202	x2 = 0.8001	x2 = 0.8728	x2 = 0.9392
303.15 K	0.705	0.745	0.778	0.839	0.87	0.902	0.924	0.942	0.984
313.15 K	0.614	0.669	0.683	0.71	0.745	0.761	0.784	0.807	0.819
323.15 K	0.56	0.597	0.604	0.614	0.639	0.655	0.664	0.684	0.692

COC(=O)c1ccccc1C(=O)OC + C1CCOC1
viscosity [mPa·s], 101 kPa
Conditions	x1 = 0.1001	x1 = 0.2019	x1 = 0.2966	x1 = 0.3989	x1 = 0.5009	x1 = 0.5992	x1 = 0.7006	x1 = 0.8013	x1 = 0.9004
293.15 K	0.7426	1.073	1.505	2.155	3.107	4.313	6.121	8.638	12.37
298.15 K	0.7028	0.9986	1.383	1.947	2.756	3.756	5.214	7.181	9.998
303.15 K	0.666	0.9314	1.276	1.769	2.463	3.303	4.496	6.063	8.238
308.15 K	0.6197	0.8698	1.181	1.616	2.217	2.93	3.92	5.189	6.906
313.15 K	0.6531	0.8136	1.097	1.483	2.007	2.619	3.45	4.494	5.87
318.15 K	0.557	0.7619	1.021	1.365	1.828	2.357	3.063	3.933	5.056
323.15 K	0.4957	0.7137	0.9522	1.261	1.674	2.136	2.739	3.474	4.404

CC(C)C1CCCCC1 + C1C[C@@H]2[C@H]3CC[C@H](C3)[C@@H]2C1
viscosity [mPa·s], 100 kPa
Conditions	x2 = 0.1002	x2 = 0.1999	x2 = 0.3001	x2 = 0.4	x2 = 0.5	x2 = 0.5999	x2 = 0.7001	x2 = 0.8003	x2 = 0.8999
293.15 K	1.194	1.305	1.431	1.578	1.741	1.938	2.165	2.421	2.706
298.15 K	1.106	1.206	1.32	1.451	1.597	1.775	1.976	2.205	2.456
303.15 K	1.029	1.119	1.222	1.34	1.471	1.631	1.812	2.016	2.241
308.15 K	0.96	1.042	1.135	1.242	1.361	1.506	1.67	1.853	2.055
313.15 K	0.898	0.973	1.058	1.156	1.265	1.397	1.543	1.709	1.891
318.15 K	0.842	0.911	0.989	1.078	1.178	1.298	1.431	1.581	1.746
323.15 K	0.793	0.855	0.927	1.009	1.1	1.21	1.331	1.467	1.616

O=CO + CC(C)=O
viscosity [mPa·s], 101 kPa
Conditions	x1 = 0.1014	x1 = 0.2068	x1 = 0.299	x1 = 0.4009	x1 = 0.4945	x1 = 0.6083	x1 = 0.6998	x1 = 0.8014	x1 = 0.8947
298.15 K	0.3575	0.4002	0.4482	0.5192	0.5972	0.7312	0.8622	1.053	1.287
308.15 K	0.3251	0.3639	0.4063	0.4659	0.5315	0.642	0.7455	0.906	1.079
318.15 K	0.2954	0.3287	0.3657	0.4163	0.4726	0.5609	0.6457	0.7719	0.9139

CC(Cl)(Cl)Cl + CC(C)CCO
298.15 K, 101 kPa
Conditions	viscosity [mPa·s]
x1 = 0.113	3.084
x1 = 0.1681	2.72
x1 = 0.3013	2.01
x1 = 0.3885	1.663
x1 = 0.509	1.339
x1 = 0.5929	1.169
x1 = 0.692	1.035
x1 = 0.7926	0.913
x1 = 0.8991	0.817

CCCCCBr + ClC(Cl)(Cl)Cl
viscosity [mPa·s], 101 kPa
Conditions	293.15 K	303.15 K	313.15 K	323.15 K
x1 = 0.13	0.925	0.81	0.712	0.633
x1 = 0.273	0.887	0.78	0.692	0.62
x1 = 0.429	0.863	0.76	0.675	0.602
x1 = 0.601	0.841	0.742	0.66	0.592

CCCCCCCCCCCCCCCC[N+](C)(C)CCOCCO.Cc1cc(Cl)ccc1OCC(=O)[O-] + CCCCCCCCCCCCCCCC[N+](C)(C)CCOCCO.Cc1cc(Cl)ccc1O[C@H](C)C(=O)[O-]
100 kPa, x1 = 0.58
Conditions	viscosity
293.15 K	4543 mPa·s and 4543 mPa·s
303.15 K	1909 mPa·s
313.15 K	928.5 mPa·s
323.15 K	493.4 mPa·s

CCCCCBr + C1CCCCC1
308.15 K, 101 kPa
Conditions	viscosity [mPa·s]
x2 = 0.0975	0.6428
x2 = 0.1991	0.6363
x2 = 0.2997	0.6323
x2 = 0.398	0.6305
x2 = 0.5025	0.6321
x2 = 0.5837	0.6355
x2 = 0.695	0.645
x2 = 0.8018	0.6614
x2 = 0.9007	0.6894

O=[N+]([O-])[O-].O=[N+]([O-])[O-].[Ba+2] + O
viscosity [mPa·s], 100 kPa
Conditions	x1 = 0.0003	x1 = 0.001	x1 = 0.003	x1 = 0.004	x1 = 0.006
298.15 K	0.888	0.9055	0.9235	0.943	0.965
323.15 K	0.5475	0.562	0.5775	0.59	0.603

O=C(O)CC(O)(CC(=O)O)C(=O)O + O
viscosity [mPa·s]
Conditions	293.15 K	298.15 K	303.15 K	308.15 K	313.15 K
100 kPa, x1 = 0.002	–	0.9112	0.8258	0.7481	0.6742
101.3 kPa, x1 = 0.00018	1.016	0.908	0.815	0.737	0.701
101.3 kPa, x1 = 0.0003607	1.025	0.917	0.822	0.741	0.675
101.3 kPa, x1 = 0.0005403	1.031	0.922	0.825	0.747	0.679

O=CO + C1COCO1
298.15 K, 101 kPa
Conditions	viscosity [mPa·s]
x2 = 0.0646	1.419
x2 = 0.1345	1.36
x2 = 0.2103	1.292
x2 = 0.2929	1.216
x2 = 0.3832	1.131
x2 = 0.4824	1.035
x2 = 0.5918	0.9302
x2 = 0.7131	0.8195
x2 = 0.8483	0.7018

O=CO + C1CCOC1
298.15 K, 101 kPa
Conditions	viscosity [mPa·s]
x2 = 0.0662	1.443
x2 = 0.1376	1.396
x2 = 0.2148	1.328
x2 = 0.2985	1.233
x2 = 0.3896	1.114
x2 = 0.4891	0.9824
x2 = 0.5983	0.8395
x2 = 0.7186	0.6886
x2 = 0.8517	0.5576

CC(Cl)(Cl)Cl + CCCCCCC
303.15 K, 101 kPa
Conditions	viscosity [mPa·s]
x1 = 0.138	0.3932
x1 = 0.2468	0.4161
x1 = 0.355	0.442
x1 = 0.4494	0.4689
x1 = 0.5571	0.5061
x1 = 0.6233	0.5327
x1 = 0.7095	0.5716
x1 = 0.7857	0.6088
x1 = 0.8262	0.63
x1 = 0.9288	0.6849

O=CO + NC=O
viscosity [mPa·s]
Conditions	298.15 K	303.15 K	308.15 K	313.15 K
101 kPa, x2 = 0.1	1.946	–	–	1.429
101 kPa, x2 = 0.2005	2.316	–	–	1.685
101 kPa, x2 = 0.3015	2.557	–	–	1.849
101 kPa, x2 = 0.4	2.85	–	–	2.065
101 kPa, x2 = 0.5002	3.057	–	–	2.23
101 kPa, x2 = 0.6001	3.196	–	–	2.31
101 kPa, x2 = 0.7	3.286	–	–	2.342
101 kPa, x2 = 0.8001	3.314	–	–	2.355
101 kPa, x2 = 0.9	3.341	–	–	2.368
101.33 kPa, x2 = 0.0748	1.77	1.58	1.45	1.33
101.33 kPa, x2 = 0.1535	2.01	1.79	1.65	1.52
101.33 kPa, x2 = 0.2286	2.25	2	1.83	1.68
101.33 kPa, x2 = 0.3078	2.5	2.21	2.02	1.84
101.33 kPa, x2 = 0.3891	2.81	2.47	2.26	2.07
101.33 kPa, x2 = 0.4554	2.86	2.52	2.3	2.1
101.33 kPa, x2 = 0.5248	2.98	2.62	2.39	2.18
101.33 kPa, x2 = 0.6239	3.06	2.69	2.46	2.24
101.33 kPa, x2 = 0.6923	3.09	2.72	2.48	2.25
101.33 kPa, x2 = 0.7982	3.13	2.74	2.49	2.26
101.33 kPa, x2 = 0.8449	3.12	2.73	2.48	2.26
101.33 kPa, x2 = 0.9202	3.11	2.72	2.47	2.25

CC(Cl)(Cl)Cl + CC(=O)CC(C)C
298.15 K, 101.33 kPa
Conditions	viscosity [mPa·s]
x2 = 0.0803	0.739
x2 = 0.1769	0.694
x2 = 0.2653	0.665
x2 = 0.3765	0.634
x2 = 0.4692	0.614
x2 = 0.5907	0.594
x2 = 0.7245	0.573
x2 = 0.8536	0.558
